Some test systems named below: IGROV-1; DU-145; MCF7; SW-620; OVCAR-5; SNB-19; MDA-MB-231; OVCAR-8; SF-295; SK-MEL-28; LOX IMVI; SNB-75; MOLT-4; RPMI-8226; COLO 205; TK-10; UACC-257; T47D; A498.
Holding throughout (experiment): NCI anticancer screen, dose series, 48 h

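A five-concentration, 48-hour dose response in 96-well plates underlies each endpoint, interpolated linearly between surrounding concentrations. The concentration for 50% growth inhibition is given as GI50.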 Calls of active or inactive are those of the source. No stated cut-off is given here; in the data, active = GI50 up to about 1.1 µM and inactive = higher.

On to `Cc1c(CN)c(C)c(CN)c(C)c1CN`, for which the GI50 in the assay with IGROV-1, in the assay on DU-145, in the assay on MCF7, with SW-620, in the assay with OVCAR-5 and with SNB-19 was > 100 µM (inactive) each time. In addition, the GI50 with MDA-MB-231, in the assay on OVCAR-8, with SF-295, in the assay on SK-MEL-28, in the assay with LOX IMVI and in the assay on SNB-75 was > 100 µM (inactive) in each case. Moreover, the GI50 with MOLT-4, with RPMI-8226, in the assay on COLO 205, in the assay on TK-10 and in the assay on UACC-257 was > 100 µM (inactive) each time.

With `N#Cc1ccc2[nH]c3c(c2c1)CC(=O)Nc1ccccc1-3` [PAULLONE 2], the GI50 is 99.8 µM (inactive) in the assay with IGROV-1; > 100 µM (inactive) in the assay with MCF7; > 100 µM (inactive) in the assay on SW-620; > 100 µM (inactive) with OVCAR-5; > 100 µM (inactive) in the assay with SNB-19; > 100 µM (inactive) in the assay with T47D. In addition, the GI50 in the assay with A498, with MDA-MB-231, in the assay on OVCAR-8, with SF-295, in the assay with SK-MEL-28 and in the assay on LOX IMVI was > 100 µM (inactive) throughout. Besides, the GI50 in the assay with SNB-75, with MOLT-4, in the assay on RPMI-8226, with COLO 205, with TK-10 and with UACC-257 was > 100 µM (inactive) in each case.

Take `COc1cc2c(cc1OCCCOc1cc3c(cc1OC)C(=O)N1CCC[C@H]1C(=O)N3)N=C[C@@H]1CCCN1C2=O`: the GI50 is 14.6 µM (inactive) with IGROV-1; 36.7 µM (inactive) with DU-145; 4.52 µM (inactive) in the assay on MCF7; 11 µM (inactive) in the assay with SW-620; 25.1 µM (inactive) with OVCAR-5; 27.3 µM (inactive) in the assay with SNB-19. Besides, the GI50 was 7.94 µM (inactive) in the assay on T47D; 17.3 µM (inactive) in the assay with A498; 14.9 µM (inactive) in the assay on MDA-MB-231; 23.4 µM (inactive) in the assay on OVCAR-8; 15.8 µM (inactive) with SF-295; 21 µM (inactive) in the assay on SK-MEL-28. For the same compound, the GI50 in the assay with LOX IMVI is 3.07 µM (inactive); in the assay on SNB-75, 10.1 µM (inactive); in the assay on MOLT-4 it was 0.206 µM (active); with RPMI-8226 it was 6.46 µM (inactive); in the assay with COLO 205, 3.61 µM (inactive); with TK-10, 25.8 µM (inactive). Also, the GI50 in the assay with UACC-257 was 24.5 µM (inactive).

Regarding `O=C(NCCN1CCOCC1)c1ccc(I)cc1`, the GI50 with IGROV-1, with MCF7, in the assay with SW-620, with OVCAR-5, with SNB-19 and in the assay with A498 was > 100 µM (inactive) in each case. For the same compound, the GI50 in the assay on OVCAR-8, in the assay with SK-MEL-28, with LOX IMVI, in the assay on SNB-75, with MOLT-4 and in the assay with RPMI-8226 was > 100 µM (inactive) throughout. The GI50 in the assay with TK-10 is > 100 µM (inactive).

In the case of `CNC(=O)OC(C)CN1c2ccccc2Sc2ccccc21` (configuration not stated), the GI50 in the assay with IGROV-1 was 59.3 µM (inactive); with DU-145 it was > 100 µM (inactive); in the assay on MCF7, > 100 µM (inactive); in the assay on SW-620, > 100 µM (inactive); with OVCAR-5, > 100 µM (inactive); in the assay with SNB-19 it was > 100 µM (inactive). Besides, the GI50 was > 100 µM (inactive) in the assay with T47D; > 100 µM (inactive) with A498; > 100 µM (inactive) with MDA-MB-231; > 100 µM (inactive) in the assay on OVCAR-8; 45.1 µM (inactive) in the assay on SF-295; > 100 µM (inactive) with SK-MEL-28. For the same compound, the GI50 in the assay with LOX IMVI is 75.2 µM (inactive); in the assay with MOLT-4, 19.1 µM (inactive); in the assay on COLO 205, 41.2 µM (inactive); with TK-10, > 100 µM (inactive); with UACC-257, > 100 µM (inactive).

With `COc1ccc(CNc2nc(NCc3ccc(OC)cc3)nc(N3CCOCC3)n2)cc1`, the GI50 is 7.91 µM (inactive) with IGROV-1; 15.1 µM (inactive) with DU-145; 4.15 µM (inactive) in the assay with MCF7; 4.25 µM (inactive) in the assay on SW-620; 4.26 µM (inactive) with OVCAR-5; 6.31 µM (inactive) in the assay on SNB-19. In addition, the GI50 is 9.84 µM (inactive) in the assay with T47D; 11 µM (inactive) in the assay on A498; 6.12 µM (inactive) in the assay on MDA-MB-231; 6.81 µM (inactive) in the assay with OVCAR-8; 2.77 µM (inactive) in the assay on SF-295; 40.2 µM (inactive) in the assay on SK-MEL-28. Moreover, the GI50 in the assay with SNB-75 was 5.51 µM (inactive); in the assay with MOLT-4, 2.88 µM (inactive); in the assay with RPMI-8226, 1.69 µM (inactive); in the assay on COLO 205, 3.91 µM (inactive); in the assay with TK-10, 3.4 µM (inactive); with UACC-257 it was 5.22 µM (inactive).

Consider `CCOC(=O)c1ccc(/N=C/C=C(\Nc2ccc(C(=O)OCC)cc2)c2ccc3ccccc3c2)cc1`, for which the GI50 in the assay with IGROV-1 was 36.2 µM (inactive); in the assay with DU-145, 37.3 µM (inactive); with MCF7 it was 23.4 µM (inactive); in the assay with SW-620, 45.2 µM (inactive); in the assay with OVCAR-5, 48.4 µM (inactive); in the assay with SNB-19, 36.2 µM (inactive). For the same compound, the GI50 in the assay on T47D is 13.9 µM (inactive); in the assay with A498, 95.9 µM (inactive); with MDA-MB-231, 25.1 µM (inactive); in the assay on OVCAR-8, 35.4 µM (inactive); in the assay with SF-295, 28.2 µM (inactive); in the assay with SK-MEL-28, 23.5 µM (inactive). The GI50 is 15.7 µM (inactive) in the assay on LOX IMVI; 28 µM (inactive) in the assay on SNB-75; 3.97 µM (inactive) with MOLT-4; 18.7 µM (inactive) with RPMI-8226; 16.2 µM (inactive) in the assay with COLO 205; 19.8 µM (inactive) with TK-10. Moreover, the GI50 in the assay with UACC-257 is 31 µM (inactive).

On to `CN(C)c1ccc(/C=N\NC(=O)CSCC(=O)N/N=C/c2ccc(N(C)C)cc2)cc1`, for which the GI50 was 19.4 µM (inactive) in the assay on IGROV-1; 51.5 µM (inactive) in the assay on DU-145; 40.5 µM (inactive) with MCF7; > 100 µM (inactive) with SW-620; 60.5 µM (inactive) in the assay with OVCAR-5; > 100 µM (inactive) in the assay with SNB-19. The GI50 in the assay on T47D is 23.8 µM (inactive); with MDA-MB-231, 13.7 µM (inactive); in the assay on OVCAR-8 it was 53.7 µM (inactive); in the assay with SF-295, 31.1 µM (inactive); in the assay on SK-MEL-28, 63.8 µM (inactive); in the assay on LOX IMVI, 33.2 µM (inactive). The GI50 with SNB-75 is 56 µM (inactive); with MOLT-4, 36.6 µM (inactive); in the assay with RPMI-8226 it was 33.3 µM (inactive); with COLO 205 it was 48 µM (inactive); in the assay with TK-10, > 100 µM (inactive); in the assay with UACC-257, > 100 µM (inactive).

As for `CCOC(=O)N[C@H]1CCc2cc(O)c(OC)c(OC)c2-c2ccc(SC)c(=O)cc21`, the GI50 in the assay with IGROV-1 was 0.0479 µM (active); in the assay with SW-620, < 0.0137 µM (active); in the assay with OVCAR-5 it was 0.614 µM (active); in the assay on SNB-19 it was 0.0282 µM (active); in the assay on A498, 0.0208 µM (active); with OVCAR-8 it was 0.0301 µM (active). In addition, the GI50 with SF-295 is 0.0123 µM (active); with SK-MEL-28, < 0.029 µM (active); in the assay with LOX IMVI it was 0.0234 µM (active); with SNB-75 it was < 0.01 µM (active); in the assay with MOLT-4, 0.03 µM (active); in the assay with RPMI-8226, < 0.0135 µM (active). For the same compound, the results for the GI50 in the assay on COLO 205, in the assay on TK-10 and with UACC-257 were 0.141 µM (active), 0.394 µM (active) and < 0.0491 µM (active), respectively.

On to `O=C(O)c1ccc(/N=N/c2cc(S(=O)(=O)O)c3cccnc3c2O)cc1`, for which the GI50 in the assay on IGROV-1, in the assay on SW-620, in the assay on OVCAR-5, in the assay on SNB-19, with A498 and in the assay on OVCAR-8 was > 100 µM (inactive) each time. The GI50 in the assay with SF-295, with SK-MEL-28, in the assay with LOX IMVI, with SNB-75, in the assay with MOLT-4 and in the assay on RPMI-8226 was > 100 µM (inactive) in each case. Also, the GI50 in the assay on COLO 205, with TK-10 and with UACC-257 was > 100 µM (inactive) in each case.

As to `O=C(C[n+]1ccccc1)N/N=C(\Cc1nc2ccc([N+](=O)[O-])cc2nc1O)C(=O)Nc1cc(Cl)c(Cl)cc1Cl`, the GI50 is > 100 µM (inactive) with IGROV-1; > 100 µM (inactive) in the assay on DU-145; 67.3 µM (inactive) with MCF7; > 100 µM (inactive) in the assay with SW-620; > 100 µM (inactive) in the assay with OVCAR-5; > 100 µM (inactive) in the assay on SNB-19. The GI50 in the assay with T47D is 68.7 µM (inactive); in the assay on A498, > 100 µM (inactive); in the assay with MDA-MB-231, 41.9 µM (inactive); in the assay on OVCAR-8 it was > 100 µM (inactive); with SF-295 it was > 100 µM (inactive); in the assay on SK-MEL-28, > 100 µM (inactive). The GI50 in the assay on LOX IMVI is 60.1 µM (inactive); in the assay with SNB-75 it was 19.4 µM (inactive); in the assay on MOLT-4, > 100 µM (inactive); with RPMI-8226, > 100 µM (inactive); with COLO 205 it was 76.2 µM (inactive); in the assay on UACC-257, > 100 µM (inactive).

For `CN1CCN(CCSC2Cc3cc(Cl)ccc3Sc3ccccc32)CC1` (configuration not stated), the GI50 in the assay with IGROV-1 was 10.3 µM (inactive); in the assay with SW-620, 2.81 µM (inactive); with OVCAR-5 it was 5.37 µM (inactive); in the assay with SNB-19, 13.9 µM (inactive); with A498, 6.41 µM (inactive); with OVCAR-8, 7.91 µM (inactive). In addition, the GI50 was 4.18 µM (inactive) in the assay on SF-295; 1.86 µM (inactive) with SK-MEL-28; 2.28 µM (inactive) in the assay with LOX IMVI; 5.82 µM (inactive) with SNB-75; 2.44 µM (inactive) with MOLT-4; 2.26 µM (inactive) with RPMI-8226. Moreover, the GI50 is 1.74 µM (inactive) in the assay with COLO 205, 5.13 µM (inactive) with TK-10 and 1.9 µM (inactive) in the assay with UACC-257.

(Values after ChEMBL document CHEMBL1201862, “PubChem BioAssay data set” (2004).)
